Measured values published in the supplement of paper PMC10307832.

How the values were obtained:
Test in all cases: relative viability (nuclei count vs DMSO), 5 days (fraction); higher = more cells survive
BGJ398 + Alpelisib = compound: CCN1CCN(c2ccc(Nc3cc(N(C)C(=O)Nc4c(Cl)c(OC)cc(OC)c4Cl)ncn3)cc2)CC1 [BGJ398] + Cc1nc(NC(=O)N2CCC[C@H]2C(N)=O)sc1-c1ccnc(C(C)(C)C(F)(F)F)c1 [Alpelisib] (partner 2 µM)
How it was run: (§1)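 Cells from lung cancer lines were seeded into 1536-well plates and, one day later, dosed by pin tool. Treatments were either a single drug or a fixed dose of an anchor drug with five library-drug doses (not always all listed) in √10 steps. After 5 days, nuclei were stained in a one-step fixation (final 0.05% Triton X-100, 1% formaldehyde, 1 ug/ml Hoechst) and counted on 4× images, and relative viability is the treated-to-vehicle nuclei ratio, as the median of duplicate plates.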

[1] = compound: C1=CC2=NC=CN=C2C=C1/C=C/3\C(=O)NC(=O)S3 + N=C(N)NC(=N)NCCc1ccccc1 [Phenformin] (partner 250 µM)
How it was run: as §1

[2] = compound: C1=CC2=NC=CN=C2C=C1/C=C/3\C(=O)NC(=O)S3 + CC1(C)CCC(c2ccc(Cl)cc2)=C(CN2CCN(c3ccc(C(=O)NS(=O)(=O)c4ccc(N[C@H](CCN5CCOCC5)CSc5ccccc5)c(S(=O)(=O)C(F)(F)F)c4)cc3)CC2)C1 [Navitoclax] (partner 0.5 µM)
How it was run: as §1

BGJ398 + Luminespib = compound: CCN1CCN(c2ccc(Nc3cc(N(C)C(=O)Nc4c(Cl)c(OC)cc(OC)c4Cl)ncn3)cc2)CC1 [BGJ398] + CCNC(=O)c1noc(-c2cc(C(C)C)c(O)cc2O)c1-c1ccc(CN2CCOCC2)cc1 [Luminespib] (partner 0.01 µM)
How it was run: as §1

Cell Line | relative viability (BGJ398 + Alpelisib; first compound 0.01 µM) | relative viability (BGJ398 + Alpelisib; first compound 0.03162 µM) | relative viability (BGJ398 + Alpelisib; first compound 0.1 µM) | relative viability (BGJ398 + Alpelisib; first compound 0.3162 µM) | relative viability (BGJ398 + Alpelisib; first compound 1 µM) | relative viability ([1]; first compound 0.02 µM) | relative viability ([1]; first compound 0.06325 µM) | relative viability ([1]; first compound 0.2 µM) | relative viability ([1]; first compound 0.6325 µM) | relative viability ([1]; first compound 2 µM) | relative viability ([2]; first compound 0.02 µM) | relative viability ([2]; first compound 0.06325 µM) | relative viability ([2]; first compound 0.2 µM) | relative viability ([2]; first compound 0.6325 µM) | relative viability ([2]; first compound 2 µM) | relative viability (BGJ398 + Luminespib; first compound 0.01 µM) | relative viability (BGJ398 + Luminespib; first compound 0.1 µM) | relative viability (BGJ398 + Luminespib; first compound 0.3162 µM) | relative viability (BGJ398 + Luminespib; first compound 1 µM) | relative viability (BGJ398 + Luminespib; first compound 0.03162 µM)
HCC-78 | 0.274 | 0.311 | 0.378 | 0.366 | 0.338 | 0.597 | 0.592 | 0.698 | 0.698 | 0.368 | 0.667 | 0.641 | 0.741 | 0.733 | 0.767 | – | – | – | – | –
HCC-366 | 0.417 | 0.478 | 0.676 | 0.404 | 0.348 | 0.609 | – | 0.632 | 0.612 | 0.575 | 1.1 | 0.776 | 1.1 | 1.1 | 0.897 | – | – | – | – | –
HCC-827 | 0.821 | – | 1.1 | 0.962 | 1.05 | 0.481 | 0.372 | 0.41 | 0.427 | 0.455 | 0.999 | 1.01 | 1.03 | 1.08 | 1.03 | 0.432 | 0.405 | 0.268 | 0.736 | –
HOP-62 | 0.721 | 1.02 | 0.824 | 0.861 | 0.984 | 0.549 | 0.643 | 0.695 | 0.646 | 0.622 | 0.974 | 1.15 | 1.13 | 1.06 | 0.931 | 0.89 | 1.03 | 0.868 | 0.897 | 0.919
IA-LM | 0.541 | 0.898 | 0.733 | 0.625 | 0.702 | – | – | – | – | – | 0.71 | 0.943 | 0.91 | 0.96 | 0.845 | – | – | – | – | –
LC-2-ad | 0.926 | 0.871 | 0.924 | 0.968 | 0.915 | 0.61 | 0.601 | 0.655 | 0.578 | 0.417 | 0.441 | 0.455 | 0.461 | 0.378 | 0.397 | 0.958 | 0.978 | 1.04 | 1.07 | 1.05
LCLC-97TM1 | 0.233 | 0.269 | 0.231 | 0.214 | 0.265 | 0.389 | 0.374 | 0.423 | 0.432 | 0.162 | 0.483 | 0.339 | 0.483 | 0.425 | 0.379 | 0.703 | 0.857 | 0.823 | 0.797 | 0.859
LCLC-103H | 1.03 | 0.954 | 0.991 | 0.975 | 0.778 | 0.325 | 0.322 | 0.351 | 0.354 | 0.25 | – | – | – | – | – | 0.982 | 1.07 | 0.931 | 0.708 | 0.961
LK-2 | 0.813 | 0.936 | 0.557 | 0.381 | 0.311 | 0.615 | 0.603 | 0.488 | 0.368 | 0.195 | 0.791 | 1.03 | 1.04 | 0.684 | 0.548 | 0.18 | 0.169 | 0.177 | 0.172 | 0.16
LOU-NH91 | 0.727 | 0.531 | 0.717 | 0.491 | 0.697 | 0.712 | 0.72 | 0.569 | 0.703 | 0.564 | 0.686 | 0.659 | 0.685 | 0.641 | 0.657 | 0.34 | 0.327 | 0.312 | 0.301 | –
NCI-H358 | 0.881 | 0.893 | 0.857 | 0.97 | 0.937 | 0.41 | 0.382 | 0.356 | 0.283 | 0.149 | – | – | – | – | – | 0.449 | 0.394 | 0.372 | 0.289 | 0.268
NCI-H522 | – | – | – | – | – | 0.65 | 0.608 | 0.666 | 0.564 | 0.579 | – | – | – | – | – | 1.21 | 1.09 | 0.99 | 1.04 | 1.4
NCI-H650 | 1.05 | 1.2 | 1.33 | 1.19 | 1.1 | 0.453 | 0.487 | 0.527 | 0.448 | 0.348 | – | – | – | – | – | 0.803 | 0.784 | 0.84 | 0.98 | 0.913
NCI-H661 | 0.594 | 1.08 | 0.715 | 0.526 | 0.614 | 0.239 | 0.393 | 0.289 | 0.298 | 0.249 | – | – | – | – | – | 0.926 | 0.937 | 0.851 | 0.852 | 0.936
NCI-H1299 | 0.999 | 1.07 | 1 | 1.05 | 1.08 | – | – | – | – | – | 1.04 | 1.08 | 1.04 | 1.04 | 1.06 | – | – | – | – | –
NCI-H1563 | 0.858 | 0.96 | 0.802 | 0.778 | 0.677 | 0.667 | 0.674 | 0.657 | 0.648 | 0.663 | – | – | – | – | – | 0.492 | 0.499 | 0.556 | 0.544 | 0.525
NCI-H1623 | – | – | – | – | – | 0.553 | 0.675 | 0.622 | 0.608 | 0.494 | – | – | – | – | – | 0.544 | 0.501 | 0.472 | 0.483 | 0.434
NCI-H1650 | – | – | – | – | – | 0.442 | 0.392 | 0.503 | 0.432 | 0.385 | 1.23 | 1.3 | 1.14 | 1.14 | 1.3 | 0.195 | 0.196 | 0.205 | 0.197 | –
NCI-H1703 | 0.331 | 0.394 | 0.348 | 0.332 | 0.359 | – | – | – | – | – | 1.19 | 1.89 | 1.24 | 0.954 | 1 | – | – | – | – | –
NCI-H2342 | – | – | – | – | – | 0.486 | 0.577 | 0.739 | 0.565 | 0.526 | – | – | – | – | – | 0.732 | 0.96 | 0.754 | 0.746 | 0.701
SW 900 | – | – | – | – | – | 0.675 | 0.601 | 0.702 | 0.4 | 0.551 | – | – | – | – | – | 0.133 | 0.175 | 0.167 | 0.153 | 0.201
